ChEMBL document CHEMBL6115046, “Synthesis and In Vitro Profiling of Psilocin Derivatives: Improved Stability and Synthetic Properties” (J Med Chem, 2025)

Legend:
[1] = Metabolic stability in human liver microsomes assessed as degradation at 1 uM measured upto 45 mins in presence of NADPH measured per mg protein by LC-MS/MS analysis; format: ADME, Microsome; conditions: 0.75 h
[2] = Chemical stability of the compound in 1M HCl assessed as half life measured for 24 hrs by LC-MS analysis; format: physicochemical
[3] = Stability of the compound in 0.1M NaOH assessed as half life measured after 24 hrs by LC-MS analysis; format: physicochemical
[4] = Stability of the compound in 0.30% H2O2 assessed as half life measured after 24 hrs by LC-MS analysis; format: physicochemical
[5] = Stability of the compound in 1M HCl assessed as parent compound remaining measured for 24 hrs by LC-MS analysis; format: physicochemical; conditions: buffer
[6] = Thermal stability of compound assessed as half life at 60 degreeC measured for 6 days by LC-MS analysis; format: physicochemical; conditions: 144 h; time 6 day
[7] = Thermal stability of the compound assessed as parent compound remaining at 60 degreeC measured for 6 days by LC-MS analysis; format: physicochemical; conditions: time 6 day
[8] = Photolytic stability of the compound assessed as parent compound remaining incubated under 12900 lx light irradiation measured for 14 days by LC-MS analysis; format: physicochemical; conditions: time 14 day
[9] = Stability of the compound in 0.1M NaOH assessed as parent compound remaining measured after 24 hrs by LC-MS analysis; format: physicochemical; conditions: read-out: Stability
[10] = Stability of the compound in 0.30% H2O2 assessed as parent compound remaining measured after 24 hrs by LC-MS analysis; format: physicochemical; conditions: read-out: Stability
[11] = Photolytic stability of the compound assessed as half life under 12900 lx light irradiation measured for 14 days by LC-MS analysis; format: physicochemical; conditions: time 14 day

In the case of `CN(C)CCc1c[nH]c2cccc(OCc3ccccc3)c12`, the Drug degradation [1] is reported as 44 µL/min.

In the case of `CN(C)CCc1c[nH]c2cccc(OB(O)O)c12.O=C(O)/C=C/C(=O)O`, the Drug degradation [1] is reported as greater than 200 µL/min.

In the case of `COC(=O)Oc1cccc2[nH]cc(CCN(C)C)c12.O=C(O)/C=C/C(=O)O`, the Drug degradation [1] is reported as greater than 200 µL/min.

Work on `CCCCC(=O)Oc1cccc2[nH]cc(CCN(C)C)c12.O=C(O)/C=C/C(=O)O` yielded a Drug degradation [1] greater than 200 µL/min.

With `CCCC(=O)Oc1cccc2[nH]cc(CCN(C)C)c12.O=C(O)/C=C/C(=O)O` the Drug degradation [1] was greater than 200 µL/min.

In the case of `CN(C)CCc1c[nH]c2cccc(OS(=O)(=O)O)c12`, the Drug degradation [1] is reported as greater than 200 µL/min.

Compound `CC(C)COC(=O)Oc1cccc2[nH]cc(CCN(C)C)c12.O=CO` has a Drug degradation [1] greater than 200 µL/min.

For `CN(C)CCc1c[nH]c2cccc(OC(=O)OCc3ccccc3)c12.O=C(O)/C=C/C(=O)O.O=CO`, the Drug degradation [1] was greater than 200 µL/min.

Compound `CN(C)CCc1c[nH]c2cccc(OC(=O)N3CCCCC3)c12.O=C(O)/C=C/C(=O)O` has a Drug degradation [1] of less than 10 µL/min.

With `CN(C)CCc1c[nH]c2cccc(O)c12.O=C1O[C@H]([C@@H](O)CO)C(O)=C1O` the t1/2 ([2]; buffer, 24 h) was greater than 166.67 h, the t1/2 [3] was 16.67 h and the t1/2 [4] was greater than 166.67 h. It also gave a Stability [5] of 97%, a t1/2 [6] of 150 h and a Stability ([7]; 144 h) of 42%. It also gave a Stability ([8]; 336 h) of 39%.

For `CN(C)CCc1c[nH]c2cccc(O)c12.OB(O)O`, the half-life ([2]; 1M HCl) was greater than 167 h, the remaining at 24 h [9] was 0% and the remaining at 24 h [10] was 0%. For the same compound, the remaining at 144 h ([7]; read-out: Stability) was 0%, the half-life [11] was less than 16.7 h and the remaining at 336 h ([8]; read-out: Stability) was 0%.

With `CN(C)CCc1c[nH]c2cccc(OP(=O)(O)O)c12` [PSILOCYBIN] the Drug degradation [1] was less than 10 µL/min.
